Reference: PubChem BioAssay (NCI)
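Five concentrations, 48 hours, 96-well plates. GI50 is the concentration that inhibits growth by half. Definition used: TGI = concentration required for complete inhibition of growth.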

Columns and labels:
Assay in all cases: DTP human tumour cell line panel, 48 h
PC-3 prostate = test system: PC-3 prostate
UACC-62 melanoma = test system: UACC-62 melanoma
SK-OV-3 ovarian = test system: SK-OV-3 ovarian
UACC-257 melanoma = test system: UACC-257 melanoma
HT29 colon = test system: HT29 colon
OVCAR-8 ovarian = test system: OVCAR-8 ovarian
HOP-62 NSCLC = test system: HOP-62 NSCLC
K-562 leukemia = test system: K-562 leukemia
EKVX NSCLC = test system: EKVX NSCLC
A498 renal = test system: A498 renal
SK-MEL-2 melanoma = test system: SK-MEL-2 melanoma
BT-549 breast = test system: BT-549 breast
MDA-MB-231 breast = test system: MDA-MB-231 breast
786-0 renal = test system: 786-0 renal
OVCAR-3 ovarian = test system: OVCAR-3 ovarian
HCT-15 colon = test system: HCT-15 colon
NCI-H522 lung = test system: NCI-H522 lung
HCT-116 colon = test system: HCT-116 colon
HL-60(TB) leukemia = test system: HL-60(TB) leukemia
HCC-2998 colon = test system: HCC-2998 colon
UO-31 renal = test system: UO-31 renal
SK-MEL-28 melanoma = test system: SK-MEL-28 melanoma
NCI-H226 lung = test system: NCI-H226 lung
SNB-75 CNS = test system: SNB-75 CNS
RPMI-8226 leukemia = test system: RPMI-8226 leukemia
A549 NSCLC = test system: A549 NSCLC
IGROV1 ovarian = test system: IGROV1 ovarian
LOX IMVI melanoma = test system: LOX IMVI melanoma
ACHN renal = test system: ACHN renal
DU-145 prostate = test system: DU-145 prostate
SF-268 CNS = test system: SF-268 CNS
OVCAR-4 ovarian = test system: OVCAR-4 ovarian
U251 CNS = test system: U251 CNS
SF-295 CNS = test system: SF-295 CNS
HOP-92 NSCLC = test system: HOP-92 NSCLC
SR leukemia = test system: SR leukemia
MCF7 breast = test system: MCF7 breast
MOLT-4 leukemia = test system: MOLT-4 leukemia
KM12 colon = test system: KM12 colon
SN12C renal = test system: SN12C renal
T-47D breast = test system: T-47D breast
SNB-19 CNS = test system: SNB-19 CNS
SF-539 CNS = test system: SF-539 CNS
OVCAR-5 ovarian = test system: OVCAR-5 ovarian
NCI-H23 lung = test system: NCI-H23 lung
MDA-MB-435 = test system: MDA-MB-435
SW-620 colon = test system: SW-620 colon
CAKI-1 renal = test system: CAKI-1 renal
NCI-H460 lung = test system: NCI-H460 lung
M14 melanoma = test system: M14 melanoma
TK-10 renal = test system: TK-10 renal
NCI/ADR-RES ovarian = test system: NCI/ADR-RES ovarian
COLO 205 colon = test system: COLO 205 colon
SK-MEL-5 melanoma = test system: SK-MEL-5 melanoma

SMILES: CS(=O)(=O)O[C@H]1C(=O)N(c2cc3c4ccccc4ccc3c3ccccc23)[C@@H]1c1ccccc1
- GI50 (PC-3 prostate): 0.561 µM
- TGI (PC-3 prostate): > 100 µM
- GI50 (UACC-62 melanoma): 0.24 µM
- TGI (UACC-62 melanoma): > 100 µM
- GI50 (SK-OV-3 ovarian): 2.31 µM
- TGI (SK-OV-3 ovarian): > 100 µM
- GI50 (UACC-257 melanoma): > 38.1 µM
- TGI (UACC-257 melanoma): > 100 µM
- GI50 (HT29 colon): 0.474 µM
- TGI (HT29 colon): > 100 µM
- TGI (OVCAR-8 ovarian): > 100 µM
- GI50 (HOP-62 NSCLC): 0.388 µM
- TGI (HOP-62 NSCLC): > 100 µM
- GI50 (K-562 leukemia): 0.731 µM
- TGI (K-562 leukemia): > 100 µM
- GI50 (EKVX NSCLC): 0.342 µM
- TGI (EKVX NSCLC): > 100 µM
- GI50 (A498 renal): 0.545 µM
- TGI (A498 renal): > 100 µM
- TGI (SK-MEL-2 melanoma): > 100 µM
- GI50 (BT-549 breast): 0.17 µM
- TGI (BT-549 breast): > 100 µM
- GI50 (MDA-MB-231 breast): 0.836 µM
- TGI (MDA-MB-231 breast): > 100 µM
- GI50 (786-0 renal): 0.287 µM
- GI50 (OVCAR-3 ovarian): 0.0617 µM
- TGI (OVCAR-3 ovarian): 0.278 µM
- GI50 (HCT-15 colon): 0.408 µM
- TGI (HCT-15 colon): > 100 µM
- GI50 (NCI-H522 lung): 1.11 µM
- TGI (NCI-H522 lung): 5.65 µM
- GI50 (HCT-116 colon): 0.313 µM
- TGI (HCT-116 colon): > 100 µM
- GI50 (HL-60(TB) leukemia): 0.532 µM
- TGI (HL-60(TB) leukemia): > 100 µM
- GI50 (HCC-2998 colon): 0.439 µM
- TGI (HCC-2998 colon): 5.64 µM
- GI50 (UO-31 renal): 3.44 µM
- TGI (UO-31 renal): > 100 µM
- GI50 (SK-MEL-28 melanoma): > 100 µM
- TGI (SK-MEL-28 melanoma): > 100 µM
- GI50 (NCI-H226 lung): > 100 µM
- TGI (NCI-H226 lung): > 100 µM
- GI50 (SNB-75 CNS): 0.656 µM
- TGI (SNB-75 CNS): > 100 µM
- GI50 (RPMI-8226 leukemia): 0.844 µM
- TGI (RPMI-8226 leukemia): > 23.5 µM
- GI50 (A549 NSCLC): 2.18 µM
- TGI (A549 NSCLC): > 100 µM
- GI50 (IGROV1 ovarian): > 100 µM
- TGI (IGROV1 ovarian): > 100 µM
- GI50 (LOX IMVI melanoma): 0.526 µM
- TGI (LOX IMVI melanoma): > 100 µM
- GI50 (ACHN renal): 0.332 µM
- TGI (ACHN renal): > 100 µM
- GI50 (DU-145 prostate): 0.819 µM
- TGI (DU-145 prostate): > 100 µM
- GI50 (SF-268 CNS): 0.588 µM
- TGI (SF-268 CNS): > 100 µM
- GI50 (OVCAR-4 ovarian): > 100 µM
- TGI (OVCAR-4 ovarian): > 100 µM
- GI50 (U251 CNS): 0.457 µM
- TGI (U251 CNS): > 100 µM
- GI50 (SF-295 CNS): 0.0995 µM
- TGI (SF-295 CNS): 0.4 µM
- TGI (HOP-92 NSCLC): > 100 µM
- GI50 (SR leukemia): 0.355 µM
- TGI (SR leukemia): > 100 µM
- GI50 (MCF7 breast): 4.33 µM
- TGI (MCF7 breast): > 100 µM
- GI50 (MOLT-4 leukemia): > 100 µM
- TGI (MOLT-4 leukemia): > 100 µM
- GI50 (KM12 colon): 0.216 µM
- TGI (KM12 colon): > 100 µM
- GI50 (SN12C renal): 0.567 µM
- TGI (SN12C renal): > 100 µM
- GI50 (T-47D breast): > 100 µM
- TGI (T-47D breast): > 100 µM
- TGI (SNB-19 CNS): > 100 µM
- GI50 (SF-539 CNS): 0.71 µM
- TGI (SF-539 CNS): 1.76 µM
- GI50 (OVCAR-5 ovarian): 0.574 µM
- GI50 (NCI-H23 lung): 0.753 µM
- TGI (NCI-H23 lung): > 100 µM
- GI50 (MDA-MB-435): 0.0232 µM
- TGI (MDA-MB-435): 0.0923 µM
- GI50 (SW-620 colon): 0.874 µM
- TGI (SW-620 colon): > 100 µM
- GI50 (CAKI-1 renal): 0.0747 µM
- TGI (CAKI-1 renal): 0.83 µM
- GI50 (NCI-H460 lung): 1.59 µM
- TGI (NCI-H460 lung): > 100 µM
- GI50 (M14 melanoma): 0.809 µM
- TGI (M14 melanoma): > 100 µM
- GI50 (TK-10 renal): 0.616 µM
- TGI (TK-10 renal): > 86.9 µM
- GI50 (NCI/ADR-RES ovarian): 0.206 µM
- TGI (NCI/ADR-RES ovarian): 0.94 µM
- GI50 (COLO 205 colon): 0.693 µM
- TGI (COLO 205 colon): > 100 µM
- GI50 (SK-MEL-5 melanoma): 0.766 µM
- TGI (SK-MEL-5 melanoma): > 33.5 µM
